Several values for one entry are separate records, joined by “and”; a condition that tells them apart may be missing. Identical values can stand only once.
Tested on: SARS-CoV-2 Omicron variant BA.1 in Vero E6 cells
Assay: microbe, parasite or virus in culture
Assay type: cell-based

| SMILES | reduction of quantity of viral RNA | EC50 (Severe acute respiratory syndrome coronavirus 2, Vero C1008, 24 h, read-out: EC50 (qRT-PCR)) [nM] | % RNA (qRT-PCR) |
| --- | --- | --- | --- |
| CCCC(NC(=O)C(CC(C)C)NC(=O)OCc1ccccc1)C(=O)C(=O)NCc1ccccn1 (stereo not drawn) [CI-XII, Benzyl N-[1-[[1.2-dioxo-1-(pyridin-2-ylmethylamino)hexan-3-yl]amino]-4-methyl-1-oxopentan-2-yl]carbamate] | more than 50% | < 100 |  |
| CCC(CC)COC(=O)[C@H](C)N[P@](=O)(OC[C@H]1O[C@@](C#N)(c2ccc3c(N)ncnn23)[C@H](O)[C@@H]1O)Oc1ccccc1 [Remdesivir] |  |  | 124.5% and 63.1% |
